25 compounds from PubChem BioAssay AID256 (DTP/NCI, 2004) can be followed below.

The assay has as its system CD2F1 mice, L1210 leukemia ip, survival T/C. Briefly: NCI In Vivo Anticancer Drug Screen. Data for tumor model L1210 Leukemia (intraperitoneal) in CD2F1 (CDF1) mice. Particulars: higher = longer survival. Put shortly: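 Read-out first: treated-group measurement over vehicle-control measurement, expressed as a ratio. Animals bore a transplanted tumor line and were dosed with compound or vehicle.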

Setting [1] is: endpoint: mean survival time, dose: 100.0 mg/kg/injection, schedule: Q04DX003 (ip), vehicle: saline with Tween-80.
[2] abbreviates: endpoint: mean survival time, dose: 200.0 mg/kg/injection, schedule: Q04DX003 (ip), vehicle: saline with Tween-80.
The mark [3] stands for this setting: endpoint: mean survival time, dose: 400.0 mg/kg/injection, schedule: Q04DX003 (ip), vehicle: saline with Tween-80.
Setting [4] is: endpoint: mean survival time, dose: 100.0 mg/kg/injection, schedule: Q01DX009 (ip), vehicle: saline with Tween-80.
Setting [5] is: endpoint: mean survival time, dose: 200.0 mg/kg/injection, schedule: Q01DX009 (ip), vehicle: saline with Tween-80.
[6] abbreviates: endpoint: mean survival time, dose: 400.0 mg/kg/injection, schedule: Q01DX009 (ip), vehicle: saline with Tween-80.
[7] abbreviates: endpoint: mean survival time, dose: 12.5 mg/kg/injection, schedule: Q01DX009 (ip), vehicle: Klucel (hydroxypropylcellulose) (HPC).
The mark [8] stands for this setting: endpoint: mean survival time, dose: 25.0 mg/kg/injection, schedule: Q01DX009 (ip), vehicle: Klucel (hydroxypropylcellulose) (HPC).
The mark [9] stands for this setting: endpoint: mean survival time, dose: 50.0 mg/kg/injection, schedule: Q01DX009 (ip), vehicle: Klucel (hydroxypropylcellulose) (HPC).
The mark [10] stands for this setting: endpoint: mean survival time, dose: 100.0 mg/kg/injection, schedule: Q01DX001 (ip), vehicle: saline with Tween-80.
Setting [11] is: endpoint: mean survival time, dose: 200.0 mg/kg/injection, schedule: Q01DX001 (ip), vehicle: saline with Tween-80.
Where [12] appears, read: endpoint: mean survival time, dose: 400.0 mg/kg/injection, schedule: Q01DX001 (ip), vehicle: saline with Tween-80.

Structures are written as SMILES. Inconclusive results and toxic doses are left out.

Consider `COc1ccc(NC(=O)Nc2cccc([N+](=O)[O-])c2OC)cc1`, for which the T/C runs as follows: (endpoint: mean survival time, dose: 200.0 mg/kg/injection, schedule: Q04DX002 (ip), vehicle: saline with Tween-80) 86 % of control; (endpoint: mean survival time, dose: 400.0 mg/kg/injection, schedule: Q04DX002 (ip), vehicle: saline with Tween-80) 96 % of control.
`CC12OCCCC1C1CCCCC12` (stereo unspecified): the T/C reads like this: under setting [1], 95 % of control; under setting [2], 95 % of control; under setting [3], 90 % of control.
`COc1cccc(CCNC(=O)CC#N)c1`: the T/C reads like this: under setting [4], 97 % of control; under setting [5], 98 % of control; under setting [6], 101 % of control.
Take `CC(=O)N(C(C)=O)c1ccc2c3c(cccc13)CC2`: the T/C runs as follows: (endpoint: mean survival time, dose: 50.0 mg/kg/injection, schedule: Q04DX003 (ip), vehicle: saline with Tween-80) 110 % of control; under setting [1], 104 % of control; under setting [2], 101 % of control.
Take `S=c1cc[nH]c(=S)[nH]1`: the T/C is 102 % of control under setting [7], 98 % of control under setting [8] and 101 % of control under setting [9].
As to `O=c1[nH][nH]c2nccnc12`, the T/C is, setting by setting: (endpoint: mean survival time, dose: 12.5 mg/kg/injection, schedule: Q01DX005 (ip), vehicle: water) 93 % of control; (endpoint: mean survival time, dose: 25.0 mg/kg/injection, schedule: Q01DX005 (ip), vehicle: water) 93 % of control; (endpoint: mean survival time, dose: 50.0 mg/kg/injection, schedule: Q01DX005 (ip), vehicle: water) 96 % of control; (endpoint: mean survival time, dose: 100.0 mg/kg/injection, schedule: Q01DX005 (ip), vehicle: water) 98 % of control; (endpoint: mean survival time, dose: 200.0 mg/kg/injection, schedule: Q01DX005 (ip), vehicle: water) 101 % of control.
For the compound `Nc1nc(-c2ccc([N+](=O)[O-])cc2)c([N+](=O)[O-])c(=O)[nH]1`, the T/C (endpoint: mean survival time, dose: 3.13 mg/kg/injection, schedule: Q01DX009 (ip), vehicle: saline with Tween-80) was 96 % of control; the T/C (endpoint: mean survival time, dose: 6.25 mg/kg/injection, schedule: Q01DX009 (ip), vehicle: saline with Tween-80) is 95 % of control; the T/C (endpoint: mean survival time, dose: 12.5 mg/kg/injection, schedule: Q01DX001 (ip), vehicle: saline with Tween-80) is 94 % of control; the T/C (endpoint: mean survival time, dose: 12.5 mg/kg/injection, schedule: Q01DX009 (ip), vehicle: saline with Tween-80) is 95 % of control.
As to `CC1(C)OC2C(/C=N/O)OC(n3ccc(=O)[nH]c3=O)C2O1` (stereo unspecified), the T/C reads like this: (endpoint: median survival time, dose: 23.13 mg/kg/injection, schedule: Q01DX005 (ip), vehicle: Klucel (hydroxypropylcellulose) (HPC)) 107 % of control; (endpoint: median survival time, dose: 46.25 mg/kg/injection, schedule: Q01DX005 (ip), vehicle: Klucel (hydroxypropylcellulose) (HPC)) 102 % of control; (endpoint: median survival time, dose: 92.5 mg/kg/injection, schedule: Q01DX005 (ip), vehicle: Klucel (hydroxypropylcellulose) (HPC)) 102 % of control; (endpoint: median survival time, dose: 185.0 mg/kg/injection, schedule: Q01DX005 (ip), vehicle: Klucel (hydroxypropylcellulose) (HPC)) 108 % of control.
With `CCOCc1ccc(C(=O)O)cc1`, the T/C under setting [4] is 96 % of control, the T/C under setting [5] is 101 % of control and the T/C under setting [6] is 101 % of control.
On to `C(/C=C/c1ccccc1)=Nc1ccc(CCc2ccc(N=C/C=C/c3ccccc3)cc2)cc1`, for which the T/C was 103 % of control under setting [10], 93 % of control under setting [11] and 91 % of control under setting [12].
Turning to `CSc1nc(=O)[nH]nc1SCc1ccccc1`, the T/C by setting is: (endpoint: mean survival time, dose: 100.0 mg/kg/injection, schedule: Q01DX001 (ip), vehicle: carboxymethylcellulose (CMC)) 100 % of control; (endpoint: mean survival time, dose: 200.0 mg/kg/injection, schedule: Q01DX001 (ip), vehicle: carboxymethylcellulose (CMC)) 91 % of control; (endpoint: mean survival time, dose: 400.0 mg/kg/injection, schedule: Q01DX001 (ip), vehicle: carboxymethylcellulose (CMC)) 89 % of control.
For the compound `CSC(=S)N/N=C/c1ccccn1`, the T/C runs as follows: (endpoint: mean survival time, dose: 50.0 mg/kg/injection, schedule: Q01DX009 (ip), vehicle: saline with Tween-80) 97 % of control; under setting [4], 98 % of control; under setting [1], 103 % of control; under setting [2], 94 % of control.
`CC(C)OC(=O)Nc1ccc(Cl)cc1`: the T/C is 97 % of control under setting [1], 97 % of control under setting [2] and 100 % of control under setting [3].
Consider `CCOC(=O)Cc1cnc(SC)nc1Nc1ccc(C)cc1`, for which the T/C is 97 % of control under setting [10], 108 % of control under setting [11] and 106 % of control under setting [12].
Take `O=C(NO)c1cccnc1`: the T/C reads like this: (endpoint: mean survival time, dose: 270.0 mg/kg/injection, schedule: Q01DX009 (ip), vehicle: other) 121 % of control; (endpoint: mean survival time, dose: 400.0 mg/kg/injection, schedule: Q01DX001 (ip), vehicle: other) 98 % of control; (endpoint: mean survival time, dose: 600.0 mg/kg/injection, schedule: Q01DX001 (ip), vehicle: other) 101 % of control; (endpoint: mean survival time, dose: 800.0 mg/kg/injection, schedule: Q01DX001 (ip), vehicle: other) 101 % of control; (endpoint: mean survival time, dose: 800.0 mg/kg/injection, schedule: Q01DX009 (ip), vehicle: other) 164 % of control.
As for `O=C1/C(=C\c2ccccc2)C2OCC=C3CN4CCC56c7ccccc7N1C5C2C3CC46` (stereo unspecified), the T/C (endpoint: mean survival time, dose: 75.0 mg/kg/injection, schedule: Q01DX001 (ip), vehicle: other) was 95 % of control.
Consider `O=C1c2ccccc2C(=O)C1(Cl)C(Cl)c1ccc([N+](=O)[O-])cc1` (stereo unspecified), for which the T/C runs as follows: (endpoint: mean survival time, dose: 100.0 mg/kg/injection, schedule: Q04DX003 (ip), vehicle: Klucel (hydroxypropylcellulose) (HPC)) 100 % of control; (endpoint: mean survival time, dose: 200.0 mg/kg/injection, schedule: Q04DX003 (ip), vehicle: Klucel (hydroxypropylcellulose) (HPC)) 106 % of control; (endpoint: mean survival time, dose: 400.0 mg/kg/injection, schedule: Q04DX003 (ip), vehicle: Klucel (hydroxypropylcellulose) (HPC)) 106 % of control.
In the case of `CC(=O)n1c(COS(C)(=O)=O)nc2ccccc21`, the T/C (endpoint: mean survival time, dose: 25.0 mg/kg/injection, schedule: Q01DX001 (ip), vehicle: carboxymethylcellulose (CMC)) is 105 % of control and the T/C (endpoint: mean survival time, dose: 50.0 mg/kg/injection, schedule: Q01DX001 (ip), vehicle: carboxymethylcellulose (CMC)) is 103 % of control.
Regarding `CN(C)Cc1cccc2ccccc12`, the T/C reads like this: under setting [7], 109 % of control; under setting [8], 109 % of control; under setting [9], 97 % of control.
As to `CCCCCC(C)(C#N)CCCCC`, the T/C is, setting by setting: under setting [4], 105 % of control; under setting [5], 103 % of control.
For the compound `CN=C([Se])NC`, the T/C reads like this: (endpoint: mean survival time, dose: 3.13 mg/kg/injection, schedule: Q01DX005 (ip), vehicle: saline with Tween-80) 108 % of control; (endpoint: mean survival time, dose: 6.25 mg/kg/injection, schedule: Q01DX005 (ip), vehicle: saline with Tween-80) 103 % of control; (endpoint: mean survival time, dose: 12.5 mg/kg/injection, schedule: Q01DX005 (ip), vehicle: saline with Tween-80) 116 % of control; (endpoint: mean survival time, dose: 12.5 mg/kg/injection, schedule: Q04DX002 (ip), vehicle: saline with Tween-80) 102 % of control; (endpoint: mean survival time, dose: 25.0 mg/kg/injection, schedule: Q04DX002 (ip), vehicle: saline with Tween-80) 104 % of control.
Turning to `Cc1ccccc1[As](c1ccccc1C)c1ccccc1C`, the T/C (endpoint: mean survival time, dose: 25.0 mg/kg/injection, schedule: Q01DX009 (ip), vehicle: saline) was 86 % of control and the T/C (endpoint: mean survival time, dose: 100.0 mg/kg/injection, schedule: Q01DX009 (ip), vehicle: saline) was 86 % of control.
For `Cn1ncc(C(=O)O)c1[N+](=O)[O-]`, the T/C was 102 % of control (endpoint: mean survival time, dose: 100.0 mg/kg/injection, schedule: Q01DX001 (ip), vehicle: saline); 103 % of control (endpoint: mean survival time, dose: 200.0 mg/kg/injection, schedule: Q01DX001 (ip), vehicle: saline); 94 % of control (endpoint: mean survival time, dose: 400.0 mg/kg/injection, schedule: Q01DX001 (ip), vehicle: saline).
Turning to `ClCCOC(c1ccc(Cl)cc1)c1ccc(Cl)cc1`, the T/C is 96 % of control (endpoint: mean survival time, dose: 100.0 mg/kg/injection, schedule: Q04DX003 (ip), vehicle: saline + alcohol); 94 % of control (endpoint: mean survival time, dose: 200.0 mg/kg/injection, schedule: Q04DX003 (ip), vehicle: saline + alcohol); 100 % of control (endpoint: mean survival time, dose: 400.0 mg/kg/injection, schedule: Q04DX003 (ip), vehicle: saline + alcohol).
With `C=CCNC(=O)C[n+]1cccc(C(=O)Nc2ccccc2)c1`, the T/C under setting [1] was 97 % of control.
